The values below come from paper PMC4227718 (Journal of the American Chemical Society, 2014).

In one test the target is Pin1 (Homo sapiens, UniProt Q13526, S16A/Y23A). The test can be described thus: Fluorescence anisotropy binding to Pin1. A general note: Fluorescence polarisation rises when a labelled molecule tumbles more slowly, as on binding a larger partner.
Another test concerns HeLa cells. The test is described as follows: MTT cell proliferation assay. Particulars: 0-20 μM, 72 h. The class given is cell-based. In general terms: Formazan colour is commonly taken as a measure of viable cells.

As for “bicyclo[Tm(D-Ala-Sar-D-Thr-D-Ala-Nal-Arg-Ala-D-Ala)-Dap-(Phe-Nal-Arg-Arg-Arg-Arg-Dap)]-Lys-NH2 [peptide 9]”, the Pin1 inhibitory activity result on Pin1 is “abolished the Pin1 inhibitory activity”. For the same substance, the “Effect on HeLa cell growth” value in the test on HeLa cells is listed as “no effect”.
